Legend:
hNIS mRNA = hNIS mRNA re-expression by RT-PCR in treated human thyroid cell lines; format: cell-based; conditions: for hNIS mRNA expression despite treatment: MRO87, WRO82 and KAT-7 cell lines
Protocol: (§1) Cell lines, for evaluation of iodide-uptake and hNIS expression, were grown in phenol-red-free RPMI 1640 with 5% fetal bovine serum (FBS), 100 nM sodium selenite and 0.1 nM bovine TSH (basal medium) (20). They were plated at a density of 3–5×10^4 cells/9.4 cm^2, in triplicate in basal medium, and grown for 2–3 days at 37° C. in 5% CO2. They were treated with dimethylsulfoxide (DMSO, 25 μM daily for 3 days), sodium butyrate (0.5 or 1.0 mM), phenylacetate (pH 7.0, 5 or 10 mM) or 5-azacytidine (0.5 or 1.0 μM, in 25 μM DMSO, daily for 3 days) until control cells were 80% confluent (3–4 days), then changed to fresh basal medium and grown for an additional 24 hrs.
(§2) Total RNA and genomic DNA from: normal human thyroid, thyroid tumors, and cell lines (treated with agents described above), were isolated by the acid-guanidinium-phenol-chloroform method (21). All surgical samples were snap-frozen and stored at −80° C. until processed by homogenization in Trizol reagent (Life Technologies, Gaithersburg, Md.) while still frozen. Complementary DNA (cDNA) was synthesized from 1.0 μg of total RNA using MMLV reverse transcriptase (RT) with random-hexamer primers (Clontech, Palo Alto, Calif.). Each 50 μL polymerase chain reaction (PCR) vessel contained: 60 mM Tris HCl, pH 9.0, 15 mM ammonium sulfate, 3.5 mM MgCl2 (1.5 mM for hTTF-1), 250 μM dNTPs (Boehringer-Mannheim, Indianapolis, Ind.), 0.2 μM each primer pair, 1 U AmpliTaq DNA polymerase (Perkin-Elmer, Norwalk, Conn.), 0.2 μg TaqStart Antibody (Clontech) and 3% cDNA. β-actin amplification (primers, Stratagene, La Jolla, Calif.) confirmed cDNA integrity, purity, and template equivalence for semiquantification. PCR primers (upstream 5′ to 3′/downstream 5′ to 3′, in all cases) used for amplification were, for hNIS (5), CTGCCCCAGACCAGTACAT GCC (SEQ ID NO. 1)/[…] (SEQ ID NO. 2) (to amplify a coding region spanning four introns (4) yielding a 303 bp product from cDNA) and for Pax-8, […] (SEQ ID NO. 3)/[…] (SEQ ID NO. 4)((22) to amplify a 329 bp product). Amplification conditions for hNIS and Pax-8 were: denaturation (95° C.×5 min); 40 cycles of 20 sec at 95° C. and 60 sec at 68° C.; followed by extension at 72° C. for 3 min. The hTTF-1 product was amplified with intron spanning primers, […] (SEQ ID NO. 5)/[…] (SEQ ID NO. 6), which amplify a 263 bp fragment. The conditions were: 95° C. for 5 min; 45 cycles of 95° C. for 20 sec, 60° C. for 60 sec, and 72° C. for 30 sec; followed by extension at 72° C. for 3 min. The RT-PCR products were resolved on 2% agarose gels and visualized by ethidium bromide staining.

[1] = tested on: TTF-1 expression and thyroglobulin promoter activity; conditions: transformed rat thyroid cell line (activated RAS oncogene); cited from earlier work
[2] = tested on: KAT-10 cells (papillary carcinoma); experiment: Iodide uptake assay (specific 125I uptake), KAT-10; format: cell-based, human
Protocol: as §1
(§3) Cell lines, treated with differentiation agents and control cultures, were washed with 2 mL of buffer containing: 10 mM HEPES ([…]), 5.5 mM glucose, 5.4 mM KCl, 1.3 mM CaCl2, 0.4 mM Na2HPO4, 0.44 mM KH2PO4, and either 137 mM NaCl (Buffer A) or 100 mM choline chloride (Buffer B). After a 60 min incubation in the same buffer supplemented with Na(^125I) (1.0 μCi/2 mL) and 1.0 μM NaI, cells were washed once with Buffer A, lysed with 0.1 M NaOH and gamma counted (5). A parallel set of dishes, similarly plated and treated, were used for normalization of uptake activity, using 3-(4,5-dimethylthiazol-2-yl)-2,5-diphenyltetrazolium bromide (MTT) assay (25) as an index of cell viability. Gamma counts of cells incubated in Buffer B were subtracted from counts of cells incubated in Buffer A, under corresponding conditions, to account for non-specific binding of radioiodide.

Pax-8 mRNA = Pax-8 mRNA expression by RT-PCR in treated cell lines; format: cell-based, human
Protocol: as §1, §2

[3] = tested on: KAT-5 cells (papillary carcinoma); experiment: Iodide uptake assay (specific 125I uptake), KAT-5; format: cell-based, human
Protocol: as §1, §3

TTF-1 mRNA = TTF-1 mRNA expression by RT-PCR in treated cell lines; format: cell-based, human; conditions: for induction of TTF-1 mRNA expression: KAT-5 and KAT-10 (basal TTF-1 undetectable)
Protocol: as §1, §2

KAT-10 cells = experiment: Lethality of culture additive in cell culture; format: cell-based, human; conditions: AzaC high, 1.0 μM
Protocol: as §1

[4] = tested on: KAK-1 cells (benign follicular adenoma); experiment: Iodide uptake assay (specific 125I uptake), KAK-1; format: cell-based, human; conditions: for Specific ^125I Uptake: KAK-1
Protocol: as §1, §3

[5] = KAK-1, high: AzaC 1.0 μM, NaB 1.0 mM, PhAc 10 mM
[6] = KAK-1, low: AzaC 0.5 μM, NaB 0.5 mM, PhAc 5.0 mM
[7] = KAT-5, high: AzaC 1.0 μM, NaB 1.0 mM, PhAc 10 mM
[8] = KAT-5, low: AzaC 0.5 μM, NaB 0.5 mM, PhAc 5.0 mM
[9] = KAT-10, low: AzaC 0.5 μM, NaB 0.5 mM, PhAc 5.0 mM
[10] = NPA'87, high: AzaC 1.0 μM, NaB 1.0 mM, PhAc 10 mM
[11] = NPA'87, low: AzaC 0.5 μM, NaB 0.5 mM, PhAc 5.0 mM
[12] = low: AzaC 0.5 μM, NaB 0.5 mM, PhAc 5.0 mM
[13] = KAT-5, high: AzaC 1.0 μM, PhAc 10 mM
[14] = NPA'87, high: AzaC 1.0 μM, NaB 1.0 mM
[15] = high: AzaC 1.0 μM, NaB 1.0 mM, PhAc 10 mM

Row | SMILES | hNIS mRNA (hNIS mRNA; [5]) | hNIS mRNA (hNIS mRNA; [6]) | hNIS mRNA (hNIS mRNA; [7]) | hNIS mRNA (hNIS mRNA; [8]) | hNIS mRNA (hNIS mRNA; [9]) | hNIS mRNA expression despite treatment (hNIS mRNA) | hNIS mRNA (hNIS mRNA; [10]) | hNIS mRNA (hNIS mRNA; [11]) | Specific ^125I Uptake [2, 12] | Pax-8 mRNA (Pax-8 mRNA; [14]) | Specific ^125I Uptake [3, 15] | Specific ^125I Uptake [3, 12] | induction of TTF-1 mRNA expression (TTF-1 mRNA) | TTF-1 mRNA (TTF-1 mRNA; [14]) | Specific ^125I Uptake [4, 15] | Specific ^125I Uptake [4, 12] | also measured
1 | Nc1ncn([C@@H]2O[C@H](CO)[C@@H](O)[C@H]2O)c(=O)n1 [AzaC, 5-azacytidine] | + | + | + | − | + | failed to express hNIS mRNA | + | − | − | + | − | − | induced | + | + | − | re-expression of hNIS mRNA, comparison of the two concentrations (hNIS mRNA; KAK-1 cells, 0.5 μM vs 1.0 μM 5-azacytidine): comparable; TTF-1 expression [1]: restored; thyroglobulin promoter activity [1]: restored; Pax-8 mRNA (Pax-8 mRNA; KAK-1, high: AzaC 1.0 μM): +; Pax-8 mRNA (Pax-8 mRNA; KAK-1, low: AzaC 0.5 μM): +; Pax-8 mRNA (Pax-8 mRNA; [13]): +; Pax-8 mRNA (Pax-8 mRNA; KAT-10, low: AzaC 0.5 μM): +; TTF-1 mRNA (TTF-1 mRNA; KAK-1, high: AzaC 1.0 μM): +; TTF-1 mRNA (TTF-1 mRNA; KAK-1, low: AzaC 0.5 μM): +; TTF-1 mRNA (TTF-1 mRNA; [13]): +; TTF-1 mRNA (TTF-1 mRNA; KAT-10, low: AzaC 0.5 μM): +; Lethality of additive concentration for the cell line (KAT-10 cells): Lethal additive concentration for this cell line; enhancement of ^125I uptake ([4]; KAK-1 cells, 0.5 μM 5-azacytidine): no enhancement of uptake; increase in ^125I uptake as compared with untreated cells ([4]; KAK-1 cells, 1.0 μM 5-azacytidine): greater than two-fold
2 | CCCC(=O)[O-].[Na+] [NaB, sodium butyrate] | − | − | − | − | − | failed to express hNIS mRNA | + | − | − | + | − | − | did not have such an effect in either of the cell lines | + | − | − | hNIS mRNA (hNIS mRNA; KAT-10, high: NaB 1.0 mM, PhAc 10 mM): +; re-expression of hNIS mRNA (hNIS mRNA; NPA'87 and KAT-10): re-expression of hNIS mRNA; Specific ^125I Uptake ([2]; high: NaB 1.0 mM, PhAc 10 mM): −; Pax-8 mRNA (Pax-8 mRNA; KAT-10, high: NaB 1.0 mM): +; TTF-1 mRNA (TTF-1 mRNA; KAT-10, high: NaB 1.0 mM): −
